In patent US8183210B2, “Reconstituted surfactants having improved properties” (Chiesi Farmaceutici S.p.A., priority 2006, dated 2012):
Bridge positions count the residues as written; N and C are the ends. Ends that are not written are not given here.

Tested on: premature newborn rabbits
Test: Surfactant preparations in ventilated premature newborn rabbits without PEEP (model of RDS): lung gas volumes and tidal volumes
Type: in vivo, rabbit
Details: no PEEP; for lung gas volumes (median): reconstituted surfactant, 2% w/w of each named peptide in DPPC:POPG 68:31 w/w, 80 mg/ml, 2.5 ml/kg at birth, FIG. 3
Method: The surfactant preparations were assayed in premature newborn rabbits, obtained by hysterectomy at the gestational age of 27 days. The experiments were performed without applying a positive end expiratory pressure (PEEP). As the SP-C analog, the polypeptide referred to as SP-C33 was used which was prepared according to Example 1. As the analog of the protein SP-B, oxidized Mini-B (ox Mini-B) was used which was prepared according to Example 2.
The animals were treated at birth with reconstituted surfactant preparations containing, as lipid carrier, the phospholipid mixture DPPC:POPG in the ratio 68:31 w/w. The phospholipids were mixed with 2 or 4% w/w SPC-33, 2% w/w ox Mini-B, or 2% w/w SPC-33 plus 2% w/w ox Mini-B. Animals receiving the same dose of Curosurf® served as positive controls, and non-treated littermates served as negative controls. All surfactant preparations were administered at a concentration of 80 mg/ml and at a standard dose of 2.5 ml/kg.
The immature newborn rabbits were ventilated in parallel with a standardized sequence of peak insufflation pressures. To open up the lungs, pressure was first set at 35 cmH2O for 1 minute. After this recruitment manoeuvre, pressure was lowered to 25 cmH2O for 15 minutes and further on to 20 and 15 cm H2O. Finally, the pressure was raised again to 25 cmH2O for 5 minutes, after which the lungs were ventilated for additional 5 minutes with nitrogen and then excised for gas volume measurements. Both lung gas volumes and tidal volumes expressed as ml/kg were measured, and the results, given as median values, are reported in FIGS. 3 and 4, respectively.

Sequence | lung gas volumes (median) | lung gas volumes, effect of increasing SP-C33 content (SP-C33 content raised from 2 to 4% w/w in DPPC:POPG 68:31)
CWLCRALIKRIQAMIPKGGRMLPQLVCRLVLRCS (disulfide 1-33, 4-27) [ox Mini-B, SP-B analog] | about 2 ml/kg | 
IPSSPVHLKRLKLLLLLLLLILLLILGALLMGL [SP-C33] | about 4 ml/kg | did not increase lung gas volumes
